Data reported in patent US11878012B2, “Compositions and methods for treating traumatic brain injury” (Board of Regents, the University of Texas System, priority 2020, dated 2024).

Columns and labels:
DGGCs = assay: Patch-clamp / current-clamp recordings of DGGCs in hippocampal slices (action potentials, AHP, IM amplitude); assay type: cell-based, mice
Experimental: Hippocampal Slice Preparation. […] Hippocampal slices were maintained in oxygenated ACSF at 30° C. for 60 min and experiments were performed at 25° C.

TRPC3 = molecular target: T1, TRPC3 (Homo sapiens, UniProt Q13507); conditions: description; cited from earlier work
T1 sequence (Q13507 1-921): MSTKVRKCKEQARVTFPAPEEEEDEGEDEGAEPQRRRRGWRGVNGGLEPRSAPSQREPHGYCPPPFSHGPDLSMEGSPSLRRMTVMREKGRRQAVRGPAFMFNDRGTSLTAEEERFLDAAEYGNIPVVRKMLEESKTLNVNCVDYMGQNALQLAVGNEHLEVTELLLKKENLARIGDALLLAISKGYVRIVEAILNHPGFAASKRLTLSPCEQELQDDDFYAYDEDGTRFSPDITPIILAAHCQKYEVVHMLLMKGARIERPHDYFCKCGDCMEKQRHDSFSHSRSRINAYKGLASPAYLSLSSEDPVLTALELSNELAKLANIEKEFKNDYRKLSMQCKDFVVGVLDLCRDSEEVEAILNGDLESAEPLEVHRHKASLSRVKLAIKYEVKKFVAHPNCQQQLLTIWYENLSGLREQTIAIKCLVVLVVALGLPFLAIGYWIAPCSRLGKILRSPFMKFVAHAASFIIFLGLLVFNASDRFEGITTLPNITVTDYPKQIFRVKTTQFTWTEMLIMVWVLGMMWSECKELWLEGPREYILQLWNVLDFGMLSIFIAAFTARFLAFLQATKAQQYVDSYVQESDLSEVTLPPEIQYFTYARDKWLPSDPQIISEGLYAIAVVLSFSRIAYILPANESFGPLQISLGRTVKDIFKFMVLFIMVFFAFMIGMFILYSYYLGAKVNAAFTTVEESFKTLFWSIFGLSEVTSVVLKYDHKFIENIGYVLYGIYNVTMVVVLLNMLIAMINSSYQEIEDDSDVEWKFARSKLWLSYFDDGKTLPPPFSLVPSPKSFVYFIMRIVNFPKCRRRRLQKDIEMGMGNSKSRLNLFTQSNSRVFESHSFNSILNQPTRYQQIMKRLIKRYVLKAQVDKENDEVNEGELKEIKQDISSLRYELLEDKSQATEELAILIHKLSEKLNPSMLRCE

[1] = TRPC4/5 channels blocked, control or plus 77-LH-28-1 3 μM

## CCCCNc1nc2ccccc2[nH]1 [M084, N-butyl-1H-benzimidazol-2-amine]
DGGCs; M084 10 μm only, n=8 cells
  action potential threshold: −45.4±1.3 mV
DGGCs; TRPC4/5 blockade with M084 10 μm, 77-LH-28-1 3 μm
  action potential firing rate on M1R agonist: did not increase
DGGCs; [1]
  AHP amplitude: 13.2 ± 0.7 mV
  AHP area: 196.8 ± 13.3 ms* mV
  AHP decay: 14.8 ± 0.7 ms
DGGCs; in presence of M084 10 μm
  membrane potential values (voltage floor), control ACSF vs 77-LH-28-1 3 μm: no significant differences
TRPC3
  effect on TRPC3: weak inhibitor or antagonist
